# Results from ChEMBL document CHEMBL1201862, “PubChem BioAssay data set” (2004).
# Where “and” joins values, the source holds several entries; their conditions need not be identical. Identical values can stand only once.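 Interpolation was linear, between the two tested concentrations surrounding the appropriate level; five concentrations were tested over 48 hours in 96-well plates. Here, GI50 denotes the concentration required for 50% inhibition of growth.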 Calls of active or inactive are those of the source. Rule as the data show it: active = GI50 up to about 1.1 µM and inactive = higher. Where a SMILES comes first, the peptide text is derived from it. [ ]: non-standard residue; d: D form. Phe(4-NO2) = N[CH](Cc1ccc([N+](=O)[O-])cc1)C(=O)O
# What was measured:
# Experiment in all cases: NCI anticancer screen, dose series, 48 h
# SK-MEL-28 = system: SK-MEL-28
# HCT-15 = system: HCT-15
# Malme-3M = system: Malme-3M
# K562 = system: K562
# MDA-N = system: MDA-N
# SN12C = system: SN12C
# OVCAR-4 = system: OVCAR-4
# UO-31 = system: UO-31
# SW-620 = system: SW-620
# A498 = system: A498
# MDA-MB-231 = system: MDA-MB-231
# KM12 = system: KM12
# M14 = system: M14
# HL-60 = system: HL-60
# HOP-62 = system: HOP-62
# CAKI-1 = system: CAKI-1
# LOX IMVI = system: LOX IMVI
# U-251 = system: U-251
# NCI-H23 = system: NCI-H23
# SR = system: SR
SMILES,GI50 (SK-MEL-28),GI50 (HCT-15) [µM],GI50 (Malme-3M),GI50 (K562),GI50 (MDA-N),GI50 (SN12C),GI50 (OVCAR-4),GI50 (UO-31),GI50 (SW-620),GI50 (A498),GI50 (MDA-MB-231),GI50 (KM12),GI50 (M14),GI50 (HL-60),GI50 (HOP-62),GI50 (CAKI-1),GI50 (LOX IMVI),GI50 (U-251),GI50 (NCI-H23),GI50 (SR)
COC(=O)C1=C(C(=O)OC)SC2(S1)C(C(=O)OC)=C(C(=O)OC)Sc1c2ssc1=O,1.46 µM (inactive),0.369,0.61 µM (active),0.547 µM (active),1.66 µM (inactive),1.19 µM (inactive),1.22 µM (inactive),1.63 µM (inactive),0.661 µM (active),1.64 µM (inactive),1.67 µM (inactive),4.78 µM (inactive),1.12 µM (inactive),0.016 µM (active),1.83 µM (inactive),1.43 µM (inactive),0.208 µM (active),2.12 µM (inactive),1.78 µM (inactive),–
NNC(=O)c1nnn(CCc2ccccc2)c1C(=O)NN,> 100 µM (inactive),> 100,> 100 µM (inactive),> 100 µM (inactive),> 100 µM (inactive),> 100 µM (inactive),> 100 µM (inactive),> 100 µM (inactive),–,–,> 100 µM (inactive),> 100 µM (inactive),> 100 µM (inactive),> 100 µM (inactive),> 100 µM (inactive),> 100 µM (inactive),> 100 µM (inactive),> 100 µM (inactive),> 100 µM (inactive),> 100 µM (inactive)
CC(/C=N/N=C1NCCCN1)=N\N=C1NCCCN1,> 100 µM (inactive),> 100,> 100 µM (inactive),> 100 µM (inactive),> 100 µM (inactive),> 100 µM (inactive),> 100 µM (inactive),> 100 µM (inactive),> 100 µM (inactive),–,> 100 µM (inactive),> 100 µM (inactive),> 100 µM (inactive),–,> 100 µM (inactive),> 100 µM (inactive),> 100 µM (inactive),> 100 µM (inactive),> 100 µM (inactive),> 100 µM (inactive)
O=C1CCC2CCC1C2 (stereo not drawn),> 100 µM (inactive),> 100,> 100 µM (inactive),> 100 µM (inactive),> 100 µM (inactive),> 100 µM (inactive),> 100 µM (inactive),> 100 µM (inactive),–,> 100 µM (inactive),> 100 µM (inactive),> 100 µM (inactive),> 100 µM (inactive),> 100 µM (inactive),> 100 µM (inactive),> 100 µM (inactive),> 100 µM (inactive),> 100 µM (inactive),> 100 µM (inactive),–
CN(N=O)C(=O)Nc1c[nH]c(=O)[nH]c1=O,> 100 µM (inactive),> 100,> 100 µM (inactive),> 100 µM (inactive),> 100 µM (inactive),> 100 µM (inactive),> 100 µM (inactive),> 100 µM (inactive),> 100 µM (inactive),> 100 µM (inactive),> 100 µM (inactive),> 100 µM (inactive),> 100 µM (inactive),> 100 µM (inactive),> 100 µM (inactive),> 100 µM (inactive),> 100 µM (inactive),> 100 µM (inactive),> 100 µM (inactive),–
CN1C(=O)C(CCO)(C(C)(C)C)c2ccccc21 (stereo not drawn),> 100 µM (inactive),> 100,–,> 100 µM (inactive),> 100 µM (inactive),> 100 µM (inactive),> 100 µM (inactive),> 100 µM (inactive),> 100 µM (inactive),–,> 100 µM (inactive),> 100 µM (inactive),> 100 µM (inactive),> 100 µM (inactive),> 100 µM (inactive),> 100 µM (inactive),> 100 µM (inactive),> 100 µM (inactive),> 100 µM (inactive),> 100 µM (inactive)
O=C1C(NS(=O)(=O)c2ccccc2)=C(n2cnc3ccccc32)C(=O)c2ccccc21,> 100 µM (inactive),> 100,> 100 µM (inactive),> 100 µM (inactive),> 100 µM (inactive),> 100 µM (inactive),34.5 µM (inactive),75.3 µM (inactive),> 100 µM (inactive),–,48.9 µM (inactive),> 100 µM (inactive),> 100 µM (inactive),> 100 µM (inactive),32.4 µM (inactive),> 100 µM (inactive),> 100 µM (inactive),46.1 µM (inactive),58.2 µM (inactive),> 100 µM (inactive)
COc1c(C(=O)/C(=N/Nc2ccc(C(=O)O)cc2)C(C)=O)c(O)cc2occc12,> 100 µM (inactive),93.8,90.8 µM (inactive),> 100 µM (inactive),35.7 µM (inactive),> 100 µM (inactive),–,> 100 µM (inactive),> 100 µM (inactive),–,> 100 µM (inactive),55 µM (inactive),> 100 µM (inactive),42.8 µM (inactive),> 100 µM (inactive),> 100 µM (inactive),> 100 µM (inactive),> 100 µM (inactive),> 100 µM (inactive),68.9 µM (inactive)
CCN1CC2=C(NC(=S)NC2c2ccc(Cl)cc2)/C(=C/c2ccc(Cl)cc2)C1 (stereo not drawn),24.4 µM (inactive),54.7,97.3 µM (inactive),19.5 µM (inactive),> 100 µM (inactive),–,> 100 µM (inactive),> 100 µM (inactive),67.1 µM (inactive),23 µM (inactive),> 100 µM (inactive),> 100 µM (inactive),> 100 µM (inactive),23.7 µM (inactive),> 100 µM (inactive),35.7 µM (inactive),> 100 µM (inactive),45.3 µM (inactive),> 100 µM (inactive),–
CCCCCCCCCC/C=C/CC(=O)SCCNC(=O)CCNC(=O)[C@@H](O)C(C)(C)COP(=O)(O)OP(=O)(O)OCC1OC(n2cnc3c(N)ncnc32)C(O)C1OP(=O)(O)O (stereo partly drawn),> 10 µM (inactive),> 10,> 10 µM (inactive),> 10 µM (inactive),> 10 µM (inactive),> 10 µM (inactive),> 10 µM (inactive),–,> 10 µM (inactive),> 10 µM (inactive),> 10 µM (inactive),> 10 µM (inactive),> 10 µM (inactive),> 10 µM (inactive),> 10 µM (inactive),> 10 µM (inactive),> 10 µM (inactive),> 10 µM (inactive),> 10 µM (inactive),–
COC1C(OC(C)=O)CC(=O)OC(C)C/C=C/C=C\C(O)C(C)CC(CC=O)C1OC1OC(C)C(OC2CC(C)(O)C(OC(=O)CC(C)C)C(C)O2)C(N(C)C)C1O (stereo not drawn),> 100 µM (inactive),–,> 100 µM (inactive),29.5 µM (inactive) and 51.2 µM (inactive),61.2 µM (inactive),> 100 µM (inactive),> 100 µM (inactive) and 68.5 µM (inactive),64.9 µM (inactive) and 43.8 µM (inactive),> 100 µM (inactive),> 100 µM (inactive) and 70.3 µM (inactive),> 100 µM (inactive),–,89.3 µM (inactive) and 57.5 µM (inactive),–,> 100 µM (inactive),> 100 µM (inactive),–,> 100 µM (inactive),> 100 µM (inactive),24.6 µM (inactive) and 18.5 µM (inactive)
O=C1c2ccccc2C(=O)N1C(=S)c1ccccc1,> 100 µM (inactive),> 100,> 100 µM (inactive),> 100 µM (inactive),> 100 µM (inactive),> 100 µM (inactive),> 100 µM (inactive),> 100 µM (inactive),> 100 µM (inactive),–,> 100 µM (inactive),> 100 µM (inactive),> 100 µM (inactive),> 100 µM (inactive),> 100 µM (inactive),> 100 µM (inactive),> 100 µM (inactive),> 100 µM (inactive),> 100 µM (inactive),> 100 µM (inactive)
CCOC(=O)Cc1cc(=O)[nH]c(-n2[nH]c(C)c(CCO)c2=O)n1,> 100 µM (inactive),> 100,> 100 µM (inactive),> 100 µM (inactive),> 100 µM (inactive),> 100 µM (inactive),> 100 µM (inactive),> 100 µM (inactive),> 100 µM (inactive),> 100 µM (inactive),> 100 µM (inactive),> 100 µM (inactive),> 100 µM (inactive),> 100 µM (inactive),> 100 µM (inactive),> 100 µM (inactive),> 100 µM (inactive),> 100 µM (inactive),> 100 µM (inactive),–
COC(=O)CCC(NC(=O)C(CCC(=O)OC)NC(=O)C(CCC(=O)OC)NC(=O)C(CCC(=O)OC)NC(=O)C(CCC(=O)OC)NC(=O)C(Cc1ccc([N+](=O)[O-])cc1)NC(=O)C(CCC(=O)OC)NC(=O)C(CCC(=O)OC)NC(=O)C(CCC(=O)OC)NC(=O)C(CCC(=O)OC)NC(=O)C(CCC(=O)OC)NC(C)=O)C(N)=O (stereo not drawn) (Ac-E(OMe)E(OMe)E(OMe)E(OMe)E(OMe)[Phe(4-NO2)]E(OMe)E(OMe)E(OMe)E(OMe)E(OMe)-NH2; configuration not given here),> 100 µM (inactive),> 10,> 100 µM (inactive),–,> 100 µM (inactive),> 100 µM (inactive),> 100 µM (inactive),> 100 µM (inactive),> 100 µM (inactive),–,48.1 µM (inactive),> 100 µM (inactive),37.9 µM (inactive),–,–,> 100 µM (inactive),> 100 µM (inactive),> 100 µM (inactive),> 100 µM (inactive),> 100 µM (inactive)
